We go through 55 molecules from ChEMBL document CHEMBL5108044, “Discovery of a Novel Potent STAT3 Inhibitor HP590 with Dual p-Tyr705/Ser727 Inhibitory Activity for Gastric Cancer Treatment” (J Med Chem, 2022).

SMILES strings stand for the structures.

The target in test [1] is Signal transducer and activator of transcription 3 (Homo sapiens, UniProt P40763). Briefly: Inhibition of human recombinant STAT3 (127 to 722 residues) transcriptional activity expressed in HEK293T cells in presence of IL-6 by Dual-luciferase reporter gene assay. The class given is cell-based. (Reporter assays use an easily measured gene product as a stand-in for the process of interest.)
Sequence of Signal transducer and activator of transcription 3 (P40763 whole entry, the tested form may be a part): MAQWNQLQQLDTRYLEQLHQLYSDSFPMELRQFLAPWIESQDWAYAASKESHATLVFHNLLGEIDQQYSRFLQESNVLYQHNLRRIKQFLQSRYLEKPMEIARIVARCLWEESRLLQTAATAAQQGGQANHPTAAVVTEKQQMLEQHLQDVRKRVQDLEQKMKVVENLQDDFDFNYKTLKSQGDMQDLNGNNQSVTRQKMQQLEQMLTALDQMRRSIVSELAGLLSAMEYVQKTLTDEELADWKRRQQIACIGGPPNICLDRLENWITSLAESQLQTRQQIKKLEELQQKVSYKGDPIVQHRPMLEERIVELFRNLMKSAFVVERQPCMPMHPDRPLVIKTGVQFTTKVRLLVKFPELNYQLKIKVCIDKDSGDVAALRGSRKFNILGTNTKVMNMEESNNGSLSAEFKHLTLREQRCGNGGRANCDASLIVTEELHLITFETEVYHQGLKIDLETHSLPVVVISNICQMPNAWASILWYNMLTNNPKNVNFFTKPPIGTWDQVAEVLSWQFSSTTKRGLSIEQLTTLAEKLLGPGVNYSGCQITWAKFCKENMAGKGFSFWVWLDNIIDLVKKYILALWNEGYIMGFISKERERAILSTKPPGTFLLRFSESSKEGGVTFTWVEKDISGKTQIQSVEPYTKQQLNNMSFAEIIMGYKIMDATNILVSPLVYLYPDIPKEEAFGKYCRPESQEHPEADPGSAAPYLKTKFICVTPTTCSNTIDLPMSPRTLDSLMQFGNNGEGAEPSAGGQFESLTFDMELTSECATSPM

Test [2] is described as follows: Inhibition of ATP production in human MKN-45 cells incubated for 20 to 24 hrs by ATP assay kit method. Type of test: functional, cell-based.
In a further test the test system is MKN-45. Briefly: Antiproliferative activity against human MKN-45 cells assessed as reduction in cell viability incubated for 72 hrs by MTS assay. As to conditions: MKN-45, 72 h. Type of test: functional, cell-based. For orientation: Tetrazolium dyes change colour on reduction, which living cells bring about.
Another test deals with AGS. Briefly: Antiproliferative activity against human AGS cells assessed as reduction in cell viability incubated for 72 hrs by MTS assay. The class given is functional, cell-based.
A further test relates to MGC-803. Briefly: Antiproliferative activity against human MGC-803 cells assessed as reduction in cell viability incubated for 72 hrs by MTS assay. The conditions noted are these: MGC-803, 72 h. Type of test: functional, cell-based.

In general, IC50 refers to the midpoint of a concentration-inhibition curve. On to `O=C(c1ccc(-c2nc(-c3cncs3)no2)nc1)N1CCN(Cc2ccc(OCC(F)(F)F)cc2)CC1`, for which, in test [1], the IC50 was above 1000 nM.
Still for that read-out and setting: the value for `O=C(c1ccc(-c2nc(-c3cccc(F)c3)no2)nc1)N1CCN(Cc2ccc(OCC(F)(F)F)cc2)CC1` was 177 nM; that for `O=C(c1ccc(-c2nc(-c3ccccc3F)no2)nc1)N1CCN(Cc2ccc(OCC(F)(F)F)cc2)CC1` was above 1000 nM.
Same read-out and setting: the value for `O=C(c1ccc(-c2nc(-c3ccc(F)cc3)no2)nc1)N1CCN(Cc2ccc(OCC(F)(F)F)cc2)CC1` was 123 nM; that for `N#Cc1ccc(CN2CCN(C(=O)c3ccc(-c4nc(-c5ccc(C(F)(F)F)cc5)no4)nc3)CC2)cc1` was 477 nM; that for `CS(=O)(=O)c1ccc(CN2CCN(C(=O)c3ccc(-c4nc(-c5ccc(C(F)(F)F)cc5)no4)nc3)CC2)cc1` was 273 nM.
Consider `O=C(c1ccc(-c2nc(-c3ccc(C(F)(F)F)cc3)no2)nc1)N1CCN(Cc2ccc(Cl)cc2)CC1`, for which the IC50 in test [1] was 108 nM.
For `O=C(c1ccc(-c2cn(-c3ccc(C(F)(F)F)cc3)nn2)nc1)N1CCN(Cc2ccc(OCC(F)(F)F)cc2)CC1`, in test [1], the IC50 was determined as 113 nM.
Regarding `O=C(c1ccc(-c2nc(-c3cccs3)no2)nc1)N1CCN(Cc2ccc(OCC(F)(F)F)cc2)CC1`, in test [1], the half-inhibitory concentration (IC50) is above 1000 nM.
The same measure, in the same setting: the value for `CCCN1CCN(C(=O)c2ccc(-c3nc(-c4ccc(C(F)(F)F)cc4)no3)nc2)CC1` was 533 nM; that for `O=C(c1ccc(-c2nc(-c3ccc(C(F)(F)F)cc3)no2)nc1)N1CCN(Cc2ccccc2OCC(F)(F)F)CC1` was above 1000 nM; that for `O=C(c1ccc(-c2nc(-c3ccc(C(F)(F)F)cc3)co2)nc1)N1CCN(Cc2ccc(OCC(F)(F)F)cc2)CC1` was 94.1 nM.
Same read-out and setting: the value for `O=C(c1ncc(-c2nc(-c3ccc(C(F)(F)F)cc3)no2)s1)N1CCN(Cc2ccc(OCC(F)(F)F)cc2)CC1` was above 1000 nM.
For `O=C(c1ccc(-c2nc(-c3ccccc3C(F)(F)F)no2)nc1)N1CCN(Cc2ccc(OCC(F)(F)F)cc2)CC1`, the 50% inhibitory concentration (IC50) in test [1] was above 1000 nM.
On to `O=C(c1ccc(-c2nc(-c3ccc(C(F)(F)F)c(F)c3)no2)nc1)N1CCN(Cc2ccc(OCC(F)(F)F)cc2)CC1`, for which the IC50 was 40.2 nM in test [1]; 218 nM in test [2]; 21.2 nM with MKN-45; 21.5 nM in the test on AGS; 22.2 nM in the test on MGC-803.
Turning to `O=C(c1cc(-c2nc(-c3ccc(C(F)(F)F)cc3)no2)ccn1)N1CCN(Cc2ccc(OCC(F)(F)F)cc2)CC1`, the IC50 came out at 32.3 nM in test [1]; 87.6 nM in test [2]; 153 nM in the test with MKN-45; 8.7 nM in the test on AGS; 13.1 nM with MGC-803.
Regarding `O=C(c1ccc(-c2nc(-c3ccc(Br)cc3)no2)nc1)N1CCN(Cc2ccc(OCC(F)(F)F)cc2)CC1`, in test [1], the IC50 amounted to 93.2 nM.
`O=C(c1ccc(-c2nc(-c3ccc(C(F)(F)F)cc3)no2)cn1)N1CCN(Cc2ccc(OCC(F)(F)F)cc2)CC1`: the IC50 in test [1] amounted to 75.9 nM; in test [2] it was 97.8 nM; in the test on MKN-45, 24.6 nM; with AGS it was 22.8 nM; in the test on MGC-803, 15.3 nM.
In the case of `O=C(c1ccccc1-c1nc(-c2ccc(C(F)(F)F)cc2)no1)N1CCN(Cc2ccc(OCC(F)(F)F)cc2)CC1`, in test [1], the IC50 was above 1000 nM.
Still for that read-out and setting: the value for `O=C(c1ccc(-c2nc(-c3ccc(C(F)(F)F)cc3)no2)nc1)N1CCN(Cc2ccc(Br)cc2F)CC1` was 564 nM; that for `COc1ccc(-c2noc(-c3ccc(C(=O)N4CCN(Cc5ccc(OCC(F)(F)F)cc5)CC4)cn3)n2)cc1` was 113 nM.
On to `O=C(c1cnc(-c2noc(-c3ccc(C(F)(F)F)cc3)n2)cn1)N1CCN(Cc2ccc(OCC(F)(F)F)cc2)CC1`, for which the IC50 in test [1] turned out to be 58 nM; in test [2], 242 nM; in the test with MKN-45, 49.5 nM; in the test on AGS, 27.2 nM; in the test with MGC-803, 32.4 nM.
For `Nc1ccc(CN2CCN(C(=O)c3ccc(-c4nc(-c5ccc(C(F)(F)F)cc5)no4)nc3)CC2)cc1`, in test [1], the IC50 was above 1000 nM.
On the same count and under the same terms, the value for `CN1CCN(C(=O)c2ccc(-c3nc(-c4ccc(C(F)(F)F)cc4)no3)nc2)CC1` was 2790 nM.
As for `O=C(c1ccc(-c2nc(-c3ccc(C(F)(F)F)cc3)no2)nc1)N1CCN(Cc2ccc(OCC(F)(F)F)cc2)CC1`, the half-maximal inhibitory concentration (IC50) in test [1] was 37.4 nM; in test [2], 72.5 nM; with MKN-45, 18.4 nM; in the test with AGS it was 8.4 nM; with MGC-803, 11.5 nM.
As to `O=C(c1ccc(-c2nc(-c3ccccc3)no2)nc1)N1CCN(Cc2ccc(OCC(F)(F)F)cc2)CC1`, the IC50 in test [1] is above 1000 nM.
Still for that read-out and setting: the value for `O=C(Cc1ccc(OC(F)(F)F)cc1)N1CCN(C(=O)c2ccc(-c3nc(-c4ccc(C(F)(F)F)cc4)no3)nc2)CC1` was 359 nM.
For the molecule `O=C(c1ccc(-c2nc(-c3ccc(C(F)(F)F)cc3)no2)nc1)N1CCN(Cc2cccc(OC(F)(F)F)c2)CC1`, the IC50 in test [1] amounted to 325 nM.
Still for that read-out and setting: the value for `O=C(c1ccc(-c2nc(-c3ccc(C(F)(F)F)cc3)cs2)nc1)N1CCN(Cc2ccc(OCC(F)(F)F)cc2)CC1` was 516 nM.
Regarding `O=C(c1ccc(-c2nc(-c3ccc(C(F)(F)F)cc3)no2)nc1)N1CCN(Cc2ccc(Br)cc2)CC1`, the half-maximal inhibitory concentration (IC50) in test [1] came out at 40.2 nM; in test [2], 520 nM; in the test on MKN-45, 108 nM; with AGS, 77.8 nM; with MGC-803 it was 67.6 nM.
On to `O=C(c1ccc(-c2nc(-c3ccc(Cl)cc3)no2)nc1)N1CCN(Cc2ccc(OCC(F)(F)F)cc2)CC1`, for which the IC50 in test [1] was determined as 271 nM.
For `O=C(c1ccc(-c2nc(-c3ccc(C(F)(F)F)cc3)no2)nc1)N1CCN(Cc2ccc(OC(F)(F)F)cc2)CC1`, the 50% inhibitory concentration (IC50) in test [1] came out at 63.6 nM; in test [2] it was 598 nM; in the test on MKN-45 it was 16.4 nM; in the test with AGS, 59.8 nM; with MGC-803 it was 12.7 nM.
Take `O=C(c1ccc(-c2nc(-c3cccc(C(F)(F)F)c3)no2)nc1)N1CCN(Cc2ccc(OCC(F)(F)F)cc2)CC1`: in test [1], the IC50 came out at 130 nM.
Regarding `CC(=O)Oc1ccc(CN2CCN(C(=O)c3ccc(-c4nc(-c5ccc(C(F)(F)F)cc5)no4)nc3)CC2)cc1`, in test [1], the IC50 was 306 nM.
Same read-out and setting: the value for `O=C(/C=C/c1ccc(OC(F)(F)F)cc1)N1CCN(C(=O)c2ccc(-c3nc(-c4ccc(C(F)(F)F)cc4)no3)nc2)CC1` was 173 nM.
In the case of `O=C(c1cccc(-c2nc(-c3ccc(C(F)(F)F)cc3)no2)c1)N1CCN(Cc2ccc(OCC(F)(F)F)cc2)CC1`, the IC50 in test [1] was determined as 52.1 nM; in test [2] it was 55.9 nM; in the test on MKN-45, 41.6 nM; with AGS, 27.1 nM; in the test with MGC-803, 28.1 nM.
In the case of `CCN1CCN(C(=O)c2ccc(-c3nc(-c4ccc(C(F)(F)F)cc4)no3)nc2)CC1`, in test [1], the IC50 is above 1000 nM.
The same measure, in the same setting: the value for `O=C(c1ccc(-c2nc(-c3ccc(C(F)(F)F)cc3)no2)nc1)N1CCN(Cc2ccc(NCC(F)(F)F)cc2)CC1` was above 1000 nM.
Consider `O=C(c1ccc(-c2nc(-c3ccc(C(F)(F)F)cc3C(F)(F)F)no2)nc1)N1CCN(Cc2ccc(OCC(F)(F)F)cc2)CC1`, for which the IC50 in test [1] was above 1000 nM.
As to `O=C(c1ccc(-c2nc(-c3ccc(OC(F)(F)F)cc3)no2)nc1)N1CCN(Cc2ccc(OCC(F)(F)F)cc2)CC1`, the IC50 in test [1] turned out to be 60.2 nM; in test [2], 93.2 nM; in the test with MKN-45, 36.4 nM; with AGS, 23.5 nM; in the test on MGC-803 it was 23.3 nM.
In the case of `O=C(c1ccc(OC(F)(F)F)cc1)N1CCN(C(=O)c2ccc(-c3nc(-c4ccc(C(F)(F)F)cc4)no3)nc2)CC1`, the IC50 in test [1] is above 1000 nM.
As to `COc1ccc(CN2CCN(C(=O)c3ccc(-c4nc(-c5ccc(C(F)(F)F)cc5)no4)nc3)CC2)cc1`, the 50% inhibitory concentration (IC50) in test [1] came out at 147 nM.
On to `Cc1ccc(CN2CCN(C(=O)c3ccc(-c4nc(-c5ccc(C(F)(F)F)cc5)no4)nc3)CC2)cc1`, for which the IC50 in test [1] amounted to 182 nM.
For `CC(C)(C)c1ccc(CN2CCN(C(=O)c3ccc(-c4nc(-c5ccc(C(F)(F)F)cc5)no4)nc3)CC2)cc1`, the concentration for half-maximal inhibition (IC50) in test [1] was determined as 88.1 nM; in test [2], 200 nM; with MKN-45, 54.5 nM; in the test with AGS, 67.6 nM; in the test with MGC-803 it was 31.8 nM.
As for `O=C(c1ccc(-c2nc(-c3ccc(C(F)(F)F)cc3)no2)nc1)N1CCN(Cc2ccccc2OC(F)(F)F)CC1`, the IC50 in test [1] was above 1000 nM.
Still for that read-out and setting: the value for `CC(C)(C)c1ccc(-c2noc(-c3ccc(C(=O)N4CCN(Cc5ccc(OCC(F)(F)F)cc5)CC4)cn3)n2)cc1` was above 1000 nM.
Same read-out and setting: the value for `O=C(c1ccc(-c2nc(-c3ccc(C(F)(F)F)cc3)no2)nc1)N1CCN(Cc2c(F)cc(Br)cc2F)CC1` was above 1000 nM.
Consider `CC(=O)c1cc2c(o1)C(=O)c1ccccc1C2=O` [NAPABUCASIN], for which the half-maximal inhibitory concentration (IC50) in the test with MKN-45 came out at 3940 nM; in the test on AGS it was 437 nM; with MGC-803 it was 872 nM.
For the molecule `O=C(c1ccc(-c2nc(-c3ncccn3)no2)nc1)N1CCN(Cc2ccc(OCC(F)(F)F)cc2)CC1`, the IC50 in test [1] was above 1000 nM.
The same measure, in the same setting: the value for `Cc1ccc(-c2noc(-c3ccc(C(=O)N4CCN(Cc5ccc(OCC(F)(F)F)cc5)CC4)cn3)n2)cc1` was 258 nM; that for `O=C(c1ncccc1-c1nc(-c2ccc(C(F)(F)F)cc2)no1)N1CCN(Cc2ccc(OCC(F)(F)F)cc2)CC1` was above 1000 nM; that for `O=C(c1ccc(-c2nc(-c3ccc(C(F)(F)F)cc3)no2)nc1)N1CCN(Cc2ccc(F)cc2)CC1` was 304 nM.
On to `O=C(c1ccc(-c2nc(-c3ccc(C(F)(F)F)cc3)no2)nc1)N1CCN(Cc2cccc(OCC(F)(F)F)c2)CC1`, for which, in test [1], the IC50 is 803 nM.
The same measure, in the same setting: the value for `O=C(c1ccc(-c2nc(-c3ccc(C(F)(F)F)cc3)no2)s1)N1CCN(Cc2ccc(OCC(F)(F)F)cc2)CC1` was 167 nM; that for `O=C(c1ccc(-c2nc(-c3ccc(C(F)(F)F)cc3)no2)nc1)N1CCN(Cc2ccc(Br)c(F)c2)CC1` was 296 nM.
